Data as given in patent publication US20030203372A1, “Analysis method” (priority 2000, published 2003).

Experiments:
[1] = system: primary human macrophages; assay: Custom gene array, macrophages exposed to hypoxia and/or TNFα; format: cell-based; settings: relative to no cytokine, 20% oxygen = 1
[2] = Hypoxia response of the referenced genes/sequences, summary in cross-reference Table 26; format: cell-based, human; settings: direction of expression change of the gene/sequence in response to hypoxia
[3] = system: primary human macrophages; assay: Custom gene array, macrophages exposed to hypoxia and/or IL-15; format: cell-based; settings: relative to no cytokine, 20% oxygen = 1
Protocol: Gene expression levels were measured and compared using the custom gene array. In data analysis per-gene normalisation was set up such that expression values represent the fold-change compared with the expression in untreated normoxic cells. Genes which are increased in expression in response to TNFα by at least 2-fold, in either normoxic or hypoxic cells, are shown in Table 20. Genes which are decreased in expression in response to TNFα by at least 2-fold, in either normoxic or hypoxic cells, are shown in Table 21.
The cytokine IL-15 is implicated in several disease in which macrophages and hypoxia both feature as elements of the inflammatory state, such as in atherosclerosis (Wuttge D M et al Am J Pathol. 2001 159:417-23) and rheumatoid arthritis (McInnes I B et al Immunol Today. 1998 19:75-9). Although the main target of IL-15 is T-cells effects have also been shown on monocytes (Badolato R et al Blood. 1997 90:2804-9). Therefore genes which respond to both hypoxia and IL-15 are especially likely to be relevant to disease processes and have utility in the design of therapeutic products. Genes which are increased in expression in response to IL-15 by at least 2-fold, in either normoxic or hypoxic cells, are shown in Table 24. Genes which are decreased in expression in response to IL-15 by at least 2-fold, in either normoxic or hypoxic cells, are shown in Table 25.

HIF = assay: HRE-Luc luciferase reporter assay of HIF activity in transiently transfected 293T cells (evaluation of HIF prolyl hydroxylase inhibitors and EGLN3 isoforms); format: cell-based, human; settings: normoxia, even when full length EGLN3 protein or EGLN3 splice variant was over-expressed; MIMO 0.4 mM
Protocol: As discussed above, the stability of HIF is controlled by proline hydroxylation, catalysed by the product of the EGLN3 gene which renders the HIF protein unstable. EGLN3 is only active in normoxia since the reaction that it catalyses requires oxygen.
Plasmid CMV-SVFL1 expresses full length EGLN3. Plasmid CMV-SVFL2 expresses the EGLN3 splice variant.
Three plasmid transfections were performed and pCIneo was used as the “stuffing”/control plasmid to fill the vacancies.
Transfected 293 cells were incubated under normoxia till the end of the experiment.

Molecule: IL-17
- Decidual protein induced by progesterone expression (clone p1C16, Seq ID 388) ([1]; 0.1% oxygen): 0.51
- EST expression (clone p1H4, Seq ID 214) ([1]; 0.1% oxygen): 0.58
- EST expression (clone p2A14, Seq ID 446) ([1]; 0.1% oxygen): 0.40
- Fatty-acid-Coenzyme A ligase, long-chain 2 expression (clone p1J11, Seq ID 466) ([1]; 0.1% oxygen): 1.28
- GAPDH expression (clone p1A11, Seq ID 254) ([1]; 0.1% oxygen): 1.84
- GRO1 expression (clone p1I24, Seq ID 486) ([1]; 0.1% oxygen): 1.28
- GRO2 expression (clone p1I19, Seq ID 482) ([1]; 0.1% oxygen): 1.43
- Glucose phosphate isomerase expression (clone p1C6, Seq ID 368) ([1]; 0.1% oxygen): 1.43
- Interleukin 8 expression (clone p1B14, Seq ID 252) ([1]; 0.1% oxygen): 7.13
- Interleukin 8 expression (clone p1B15, Seq ID 252) ([1]; 0.1% oxygen): 9.71
- Interleukin 8 expression (clone p1B16, Seq ID 252) ([1]; 0.1% oxygen): 12.2
- Neutral sphingomyelinase (N-SMase) activation associated factor expression (clone p1J22, Seq ID 428) ([1]; 0.1% oxygen): 0.11
- Plasminogen activator inhibitor, type 1 expression (clone p1B18, Seq ID 236) ([1]; 0.1% oxygen): 0.78
- SCYA2 expression (clone p1P5, Seq ID 396) ([1]; 0.1% oxygen): 0.58
- SCYA4 expression (clone p1K8, Seq ID 408) ([1]; 0.1% oxygen): 0.83
- cDNA YI27F12 expression (clone p1E15, Seq ID 108) ([1]; 0.1% oxygen): 0.56
- hypothetical protein FLJ10206 expression (clone p1J6, Seq ID 40) ([1]; 0.1% oxygen): 0.23
- Decidual protein induced by progesterone expression (clone p1C16, Seq ID 388) ([1]; 20% oxygen): 0.73
- EST expression (clone p1H4, Seq ID 214) ([1]; 20% oxygen): 0.49
- EST expression (clone p2A14, Seq ID 446) ([1]; 20% oxygen): 0.56
- Fatty-acid-Coenzyme A ligase, long-chain 2 expression (clone p1J11, Seq ID 466) ([1]; 20% oxygen): 1.63
- GAPDH expression (clone p1A11, Seq ID 254) ([1]; 20% oxygen): 2.60
- GRO1 expression (clone p1I24, Seq ID 486) ([1]; 20% oxygen): 2.29
- GRO2 expression (clone p1I19, Seq ID 482) ([1]; 20% oxygen): 2.26
- Glucose phosphate isomerase expression (clone p1C6, Seq ID 368) ([1]; 20% oxygen): 2.14
- Glycogen synthase 1 expression (clone p1G24, Seq ID 276) ([1]; 20% oxygen): 0.34
- Hypoxia-inducible protein 2 expression (clone p1D8, Seq ID 272) ([1]; 20% oxygen): 0.44
- Interleukin 8 expression (clone p1B14, Seq ID 252) ([1]; 20% oxygen): 9.34
- Interleukin 8 expression (clone p1B15, Seq ID 252) ([1]; 20% oxygen): 7.36
- Interleukin 8 expression (clone p1B16, Seq ID 252) ([1]; 20% oxygen): 9.52
- Plasminogen activator inhibitor, type 1 expression (clone p1B18, Seq ID 236) ([1]; 20% oxygen): 0.49
- SCYA2 expression (clone p1P5, Seq ID 396) ([1]; 20% oxygen): 2.12
- SCYA4 expression (clone p1K8, Seq ID 408) ([1]; 20% oxygen): 2.48
- hypothetical protein FLJ10206 expression (clone p1J6, Seq ID 40) ([1]; 20% oxygen): 0.22

Molecule: Alpha-2-macroglobulin
- Hypoxia response [2]: Repression

Molecule: IL-15
- ABL expression (clone p1H8, Seq ID 182) ([3]; 0.1% oxygen): 0.09
- Abstrakt expression (clone p1C14, Seq ID 384) ([3]; 0.1% oxygen): 1.24
- Adipophilin expression (clone p1B6, Seq ID 314) ([3]; 0.1% oxygen): 2.39
- Adipophilin expression (clone p1B7, Seq ID 314) ([3]; 0.1% oxygen): 2.02
- Adipophilin expression (clone p1B8, Seq ID 314) ([3]; 0.1% oxygen): 1.42
- Adipophilin expression (clone p1B9, Seq ID 314) ([3]; 0.1% oxygen): 1.66
- Aldolase C expression (clone p1A19, Seq ID 260) ([3]; 0.1% oxygen): 1.30
- D123 expression (clone p1C7, Seq ID 370) ([3]; 0.1% oxygen): 0.90
- EST expression (clone p1D19, Seq ID 144) ([3]; 0.1% oxygen): 1.39
- EST expression (clone p1H6, Seq ID 192) ([3]; 0.1% oxygen): 0.67
- EST expression (clone p2A14, Seq ID 446) ([3]; 0.1% oxygen): 0.51
- Fatty-acid-Coenzyme A ligase, long-chain 2 expression (clone p1J11, Seq ID 466) ([3]; 0.1% oxygen): 1.29
- GAPDH expression (clone p1A11, Seq ID 254) ([3]; 0.1% oxygen): 4.32
- Glucose phosphate isomerase expression (clone p1C6, Seq ID 368) ([3]; 0.1% oxygen): 3.13
- Glycogen synthase 1 expression (clone p1G24, Seq ID 276) ([3]; 0.1% oxygen): 0.55
- Hypoxia-inducible protein 2 expression (clone p1D8, Seq ID 272) ([3]; 0.1% oxygen): 0.62
- Keratin 6B expression (clone p1K14, Seq ID 422) ([3]; 0.1% oxygen): 0.11
- Lactate dehydrogenase A expression (clone p1A8, Seq ID 224) ([3]; 0.1% oxygen): 2.29
- Lactate dehydrogenase A expression (clone p1A9, Seq ID 224) ([3]; 0.1% oxygen): 1.83
- Metallothionein 2A expression (clone p1A23, Seq ID 266) ([3]; 0.1% oxygen): 3.08
- Neutral sphingomyelinase (N-SMase) activation associated factor expression (clone p1J22, Seq ID 428) ([3]; 0.1% oxygen): 0.11
- Proline 4-hydroxylase, alpha polypeptide II expression (clone p1B4, Seq ID 350) ([3]; 0.1% oxygen): 1.34
- SCYA2 expression (clone p1P5, Seq ID 396) ([3]; 0.1% oxygen): 1.37
- SCYA7 expression (clone p1J5, Seq ID 464) ([3]; 0.1% oxygen): 1.61
- SCYA8 expression (clone p1I21, Seq ID 480) ([3]; 0.1% oxygen): 1.55
- Triosephosphate isomerase 1 expression (clone p1A20, Seq ID 262) ([3]; 0.1% oxygen): 1.22
- Uridine 5′ monophosphate hydrolase 1 expression (clone p1I7, Seq ID 50) ([3]; 0.1% oxygen): 3.61
- cDNA: FLJ23019 fis, clone LNG00916 expression (clone p1J16, Seq ID 454) ([3]; 0.1% oxygen): 7.27
- hypothetical protein FLJ10206 expression (clone p1J6, Seq ID 40) ([3]; 0.1% oxygen): 0.18
- hypothetical protein FLJ22690 expression (clone p1H5, Seq ID 206) ([3]; 0.1% oxygen): 1.59
- hypothetical protein MGC4549 expression (clone p1I12, Seq ID 152) ([3]; 0.1% oxygen): 0.28
- ABL expression (clone p1H8, Seq ID 182) ([3]; 20% oxygen): 1.22
- Abstrakt expression (clone p1C14, Seq ID 384) ([3]; 20% oxygen): 0.40
- Adipophilin expression (clone p1B6, Seq ID 314) ([3]; 20% oxygen): 0.37
- Adipophilin expression (clone p1B7, Seq ID 314) ([3]; 20% oxygen): 0.30
- Adipophilin expression (clone p1B8, Seq ID 314) ([3]; 20% oxygen): 0.23
- Adipophilin expression (clone p1B9, Seq ID 314) ([3]; 20% oxygen): 0.41
- Aldolase C expression (clone p1A19, Seq ID 260) ([3]; 20% oxygen): 0.35
- D123 expression (clone p1C7, Seq ID 370) ([3]; 20% oxygen): 0.47
- EST expression (clone p1D19, Seq ID 144) ([3]; 20% oxygen): 2.27
- EST expression (clone p1H6, Seq ID 192) ([3]; 20% oxygen): 1.95
- EST expression (clone p2A14, Seq ID 446) ([3]; 20% oxygen): 1.08
- Fatty-acid-Coenzyme A ligase, long-chain 2 expression (clone p1J11, Seq ID 466) ([3]; 20% oxygen): 1.64
- GAPDH expression (clone p1A11, Seq ID 254) ([3]; 20% oxygen): 0.52
- Glucose phosphate isomerase expression (clone p1C6, Seq ID 368) ([3]; 20% oxygen): 0.57
- Glycogen synthase 1 expression (clone p1G24, Seq ID 276) ([3]; 20% oxygen): 0.88
- Hypoxia-inducible protein 2 expression (clone p1D8, Seq ID 272) ([3]; 20% oxygen): 1.25
- Keratin 6B expression (clone p1K14, Seq ID 422) ([3]; 20% oxygen): 1.48
- Lactate dehydrogenase A expression (clone p1A8, Seq ID 224) ([3]; 20% oxygen): 0.48
- Lactate dehydrogenase A expression (clone p1A9, Seq ID 224) ([3]; 20% oxygen): 0.49
- Metallothionein 2A expression (clone p1A23, Seq ID 266) ([3]; 20% oxygen): 1.26
- Neutral sphingomyelinase (N-SMase) activation associated factor expression (clone p1J22, Seq ID 428) ([3]; 20% oxygen): 1.51
- Proline 4-hydroxylase, alpha polypeptide II expression (clone p1B4, Seq ID 350) ([3]; 20% oxygen): 0.50
- SCYA2 expression (clone p1P5, Seq ID 396) ([3]; 20% oxygen): 4.51
- SCYA7 expression (clone p1J5, Seq ID 464) ([3]; 20% oxygen): 3.27
- SCYA8 expression (clone p1I21, Seq ID 480) ([3]; 20% oxygen): 3.77
- Triosephosphate isomerase 1 expression (clone p1A20, Seq ID 262) ([3]; 20% oxygen): 0.36
- Uridine 5′ monophosphate hydrolase 1 expression (clone p1I7, Seq ID 50) ([3]; 20% oxygen): 4.98
- cDNA: FLJ23019 fis, clone LNG00916 expression (clone p1J16, Seq ID 454) ([3]; 20% oxygen): 5.76
- hypothetical protein FLJ10206 expression (clone p1J6, Seq ID 40) ([3]; 20% oxygen): 1.28
- hypothetical protein FLJ22690 expression (clone p1H5, Seq ID 206) ([3]; 20% oxygen): 2.37
- hypothetical protein MGC4549 expression (clone p1I12, Seq ID 152) ([3]; 20% oxygen): 1.64

Molecule: CCOC(=O)c1ccc(O)c(O)c1 [EDB]
- HIF-PH inhibition (HIF): work as HIF-PH inhibitors

Molecule: Osteopontin
- Hypoxia response [2]: Increase
